Assay [1] deals with COVID-19 virus Beta variant. Format: cell-based.
In assay [2] the test system is COVID-19 virus Delta variant. Format: cell-based.

Consider `COc1cc(O)cc(C2OCC3C(c4ccc(OC5OC(CO)C(O)C(O)C5O)c(OC)c4)OCC23)c1` (centres unmarked) [compound 1], for which the “COVID-19 Beta virus SI” value in assay [1] is 7.64. For the same compound, the “COVID-19 Delta virus SI” value in assay [2] is listed as 7.14.

In the case of `COc1ccc([C@H]2OC[C@H]3[C@@H]2CO[C@H]3c2ccc(O[C@@H]3O[C@H](CO)[C@@H](O)[C@H](O)[C@H]3O)c(OC)c2)cc1OC` [compound 2], in assay [1], the “COVID-19 Beta virus SI” value is 7.10. For the same compound, in assay [2], the “COVID-19 Delta virus SI” value was 6.86.

On to `COc1ccc(C2OCC3C(c4ccc(OC(=O)C(C)c5ccc(CC(C)C)cc5)c(OC)c4)OCC23)cc1OC` (centres unmarked) [compound 6], for which the “COVID-19 Beta virus SI” value in assay [1] worked out at 3.43. Further, the “COVID-19 Delta virus SI” value in assay [2] is 1.79.

Regarding `COc1ccc(C2OCC3C(c4ccc(OC)c(OC)c4)OCC23)cc1O` (centres unmarked) [compound 3], in assay [1], the “COVID-19 Beta virus SI” value came to 2.12. Further, the “COVID-19 Delta virus SI” value in assay [2] is given as 2.11.
